Experimental data published in patent US20240398805A1, “QUINAZOLINE DERIVED COMPOUNDS AS EGFR INHIBITORS AND THEIR USES THEREOF” (ACCUTAR BIOTECHNOLOGY INC., priority 2021, published 2024).

How the values were obtained:
Type in all cases: cell-based
[1] = system: HCC827 cells; assay: Cell growth inhibition (CellTiter-Glo, 3 days) in HCC827; details: Homo sapiens, 72 h, 3 days after administration
Protocol: (§1) 2. Cell Growth Inhibition for HCC827, HCC827-SVD, HCC827-ASV, HCC827-YVMA and A431.
(§2) HCC827(ATCC), HCC827-SVD, HCC827-ASV, HCC827-YVMA were seeded in 96-well plates at 5000 cells/well in 90 μl of RPMI growth medium containing 10% FBS and 1% Penicillin Streptomycin. A431 (ATCC) cells were seed in 96-well plates at 5000 cells/well in 90 μl of DMEM growth medium containing 10% FBS and 1% Penicillin Streptomycin. Cells were incubated at 3700 overnight. The following day, the test compound was administered to the cells by using 1 Ox compound stock solution prepared in growth medium at various concentrations. After administration of the compound, cells were then incubated at 3700 for 3 days. Before CeIlTiter-Glo assay, the plates were equilibrated at room temperature for approximately 10 minutes. 100 ul of CelTiter-Glo® Reagent (Promega) was added to each well. The plates were then incubated at room temperature for 10 minutes and luminescence was recorded by EnSpire plate reader (PerkinElmer).

[2] = system: HCC827-SVD cells (human EGFR exon 20 insertion mutant D770_N771 insSVD); assay: Cell growth inhibition (CellTiter-Glo, 3 days) in HCC827-SVD; details: 72 h, 3 days after administration
Protocol: (§3) 1. Preparation of HCC827-SVD, HCC827-ASV and HCC827-YVMA Cell Lines
HCC827-SVD cell line were generated by first transducing HCC827 cells (ATCC) with lentiviral particles expressing codon-optimized human EGFR exon 20 insertion mutant D770_N771 insSVD, and then selecting under 5 μg/ml purimycin treatment for a week.
The resulting cells were further transduced with lentiviral particles carrying EGFR sgRNA and CAS9 to knockout the endogenous alleles of EGFR, and then selected under 500 μg/ml hygromycin B treatment for two weeks. Single clone was subsequently generated by limiting dilution approach. Endogenous EGFR knockout was confirmed by Sanger sequencing of cell genomic DNA and expression of exogenous mutant EGFR was verified by Western blot analysis.
as §1, §2

[3] = system: HCC827-ASV cells (human EGFR exon 20 insertion mutant A769_D770insASV); assay: Cell growth inhibition (CellTiter-Glo, 3 days) in HCC827-ASV; details: 72 h, 3 days after administration
From the text: as §3
(§4) HCC827-ASV and HCC827-YVMA cell lines were generated in the similar approach as HCC827-SVD except that HCC827 cells (ATCC) were first transduced with lentiviral particles expressing codon-optimized human EGFR exon 20 insertion mutant A769_D770insASV and human ERBB2 exon20 insertion mutant A775_G776ins YVMA, respectively.
as §1, §2

[4] = system: HCC827-YVMA cells (human ERBB2 exon20 insertion mutant A775_G776ins YVMA); assay: Cell growth inhibition (CellTiter-Glo, 3 days) in HCC827-YVMA; details: 72 h, 3 days after administration
From the text: as §3, §4, §1, §2

[5] = system: A431 cells; assay: Cell growth inhibition (CellTiter-Glo, 3 days) in A431; details: Homo sapiens, A-431, 72 h, 3 days after administration
Protocol: as §1, §2

Structure (SMILES)	GI50 [1] [nM]	GI50 [2] [nM]	GI50 [3] [nM]	GI50 [4] [nM]	GI50 [5] [nM]
C=CC(=O)N1CCC(Nc2cc3c(Nc4ccc(Oc5ccn(-c6cnc(OC)nc6)n5)cc4F)ncnc3cc2OC)CC1 [Compound 1, 1-(4-((4-((2-fluoro-4-((1-(2-methoxypyrimidin-5-yl)-1H-pyrazol-3-yl)oxy)phenyl)amino)-7-methoxyquinazolin-6-yl)amino)piperidin-1-yl)prop-2-en-1-one]	300 to 600	60 to 100	30 to 60	60 to 100	300 to 600
C=CC(=O)N1CCC(Nc2cc3c(Nc4ccc(Oc5ccn(-c6cnc(C)c(F)c6)n5)cc4F)ncnc3cc2OC)CC1 [Compound 2, 1-(4-((4-((2-fluoro-4-((1-(5-fluoro-6-methylpyridin-3-yl)-1H-pyrazol-3-yl)oxy)phenyl)amino)-7-methoxyquinazolin-6-yl)amino)piperidin-1-yl)prop-2-en-1-one]	< 30	< 30	< 30	< 30	60 to 100
C=CC(=O)N1CCC(Nc2cc3c(Nc4ccc(Oc5ccn(-c6ccc(C)nc6)n5)cc4F)ncnc3cc2OC)CC1 [Compound 3, 1-(4-((4-((2-fluoro-4-((1-(6-methylpyridin-3-yl)-1H-pyrazol-3-yl)oxy)phenyl)amino)-7-methoxyquinazolin-6-yl)amino)piperidin-1-yl)prop-2-en-1-one]	300 to 600	60 to 100	30 to 60	30 to 60	100 to 300
C=CC(=O)N1CCC(Nc2cc3c(Nc4ccc(Oc5nc(-c6nnc(C(C)C)o6)cs5)cc4F)ncnc3cc2OC)CC1 [Compound 4, 1-(4-((4-((2-fluoro-4-((4-(5-isopropyl-1,3,4-oxadiazol-2-yl)thiazol-2-yl)oxy)phenyl)amino)-7-methoxyquinazolin-6-yl)amino)piperidin-1-yl)prop-2-en-1-one]	300 to 600	100 to 300	100 to 300	100 to 300	300 to 600
C=CC(=O)N1CCC(Nc2cc3c(Nc4ccc(Oc5ncc(-c6ccc(C)nc6)s5)cc4F)ncnc3cc2OC)CC1 [Compound 5, 1-(4-((4-((2-fluoro-4-((5-(6-methylpyridin-3-yl)thiazol-2-yl)oxy)phenyl)amino)-7-methoxyquinazolin-6-yl)amino)piperidin-1-yl)prop-2-en-1-one]	100 to 300	100 to 300	100 to 300	100 to 300	300 to 600
C=CC(=O)N1CCC(Nc2cc3c(Nc4ccc(Oc5nc(-c6ccc(C)nc6)cs5)cc4F)ncnc3cc2OC)CC1 [Compound 6, 1-(4-((4-((2-fluoro-4-((4-(6-methylpyridin-3-yl)thiazol-2-yl)oxy)phenyl)amino)-7-methoxyquinazolin-6-yl)amino)piperidin-1-yl)prop-2-en-1-one]	≥ 1000	300 to 600	300 to 600	300 to 600	300 to 600
C=CC(=O)N1CCC(Nc2cc3c(Nc4ccc(Oc5ccn6ncnc6c5)c(Cl)c4)ncnc3cc2OC)CC1 [Compound 7, 1-(4-((4-((4-([1,2,4]triazolo[1,5-a]pyridin-7-yloxy)-3-chlorophenyl)amino)-7-methoxyquinazolin-6-yl)amino)piperidin-1-yl)prop-2-en-1-one]	< 30	< 30	< 30	< 30	< 30
C=CC(=O)N1CC[C@H](Nc2cc3c(Nc4ccc(Oc5ccn(-c6cnc(OC)nc6)n5)cc4F)ncnc3cc2OC)C1 [Compound 8, (S)-1-(3-((4-((2-fluoro-4-((1-(2-methoxypyrimidin-5-yl)-1H-pyrazol-3-yl)oxy)phenyl)amino)-7-methoxyquinazolin-6-yl)amino)pyrrolidin-1-yl)prop-2-en-1-one]	100 to 300	30 to 60	100 to 300	30 to 60	300 to 600
C=CC(=O)N1CC[C@@H](Nc2cc3c(Nc4ccc(Oc5ccn(-c6cnc(OC)nc6)n5)cc4F)ncnc3cc2OC)C1 [Compound 9, (R)-1-(3-((4-((2-fluoro-4-((1-(2-methoxypyrimidin-5-yl)-1H-pyrazol-3-yl)oxy)phenyl)amino)-7-methoxyquinazolin-6-yl)amino)pyrrolidin-1-yl)prop-2-en-1-one]	≥ 1000	≥ 1000	≥ 1000	≥ 1000	≥ 1000
C=CC(=O)N1CCC(Nc2cc3c(Nc4ccc(Oc5ccn(-c6cnc(C)c(Cl)c6)n5)cc4F)ncnc3cc2OC)CC1 [Compound 10, 1-(4-((4-((4-((1-(5-chloro-6-methylpyridin-3-yl)-1H-pyrazol-3-yl)oxy)-2-fluorophenyl)amino)-7-methoxyquinazolin-6-yl)amino)piperidin-1-yl)prop-2-en-1-one]	30 to 60	< 30	< 30	< 30	300 to 600
C=CC(=O)N1CCC(Nc2cc3c(Nc4ccc(Oc5ccn(-c6cnc(C)c(C#N)c6)n5)cc4F)ncnc3cc2OC)CC1 [Compound 11, 5-(3-(4-((6-((1-acryloylpiperidin-4-yl)amino)-7-methoxyquinazolin-4-yl)amino)-3-fluorophenoxy)-1H-pyrazol-1-yl)-2-methylnicotinonitrile]	60 to 100	30 to 60	30 to 60	60 to 100	100 to 300
C=CC(=O)N1CCC(Nc2cc3c(Nc4ccc(Oc5ccn(-c6ccc(OC)nc6)n5)cc4F)ncnc3cc2OC)CC1 [Compound 12, 1-(4-((4-((2-fluoro-4-((1-(6-methoxypyridin-3-yl)-1H-pyrazol-3-yl)oxy)phenyl)amino)-7-methoxyquinazolin-6-yl)amino)piperidin-1-yl)prop-2-en-1-one]	30 to 60	< 30	< 30	< 30	100 to 300
C=CC(=O)N1CCC(Nc2cc3c(Nc4ccc(Oc5ccn(-c6cnc(C)c(F)c6)n5)cc4F)ncnc3cc2OCC)CC1 [Compound 13, 1-(4-((7-ethoxy-4-((2-fluoro-4-((1-(5-fluoro-6-methylpyridin-3-yl)-1H-pyrazol-3-yl)oxy)phenyl)amino)quinazolin-6-yl)amino)piperidin-1-yl)prop-2-en-1-one]	< 30	< 30	< 30	< 30	300 to 600
C=CC(=O)N1CCC(Nc2cc3c(Nc4ccc(Oc5ccn(-c6ccc(C)cn6)n5)cc4F)ncnc3cc2OC)CC1 [Compound 14]	60 to 100	100 to 300	100 to 300	60 to 100	60 to 100
C=CC(=O)N1CCC(Nc2cc3c(Nc4ccc(Oc5ccn(-c6cc(F)c(C)cn6)n5)cc4F)ncnc3cc2OC)CC1 [Compound 15, 1-(4-((4-((2-fluoro-4-((1-(4-fluoro-5-methylpyridin-2-yl)-1H-pyrazol-3-yl)oxy)phenyl)amino)-7-methoxyquinazolin-6-yl)amino)piperidin-1-yl)prop-2-en-1-one]	100 to 300	100 to 300	100 to 300	60 to 100	100 to 300
C=CC(=O)N1CCC(Nc2cc3c(Nc4ccc(Oc5ccn(-c6ccc(C)cn6)n5)c(Cl)c4)ncnc3cc2OC)CC1 [Compound 16]	< 30	< 30	< 30	< 30	300 to 600
COc1cc2ncnc(Nc3ccc(Oc4ccn(-c5cnc(C)c(F)c5)n4)cc3F)c2cc1NC1CCN(C(=O)/C=C/CN(C)C)CC1 [Compound 21, (2E)-4-(dimethylamino)-1-[4-({4-[(2-fluoro-4-{[1-(5-fluoro-6-methylpyridin-3-yl)pyrazol-3-yl]oxy}phenyl)amino]-7-methoxyquinazolin-6-yl}amino)piperidin-1-yl]but-2-en-1-one]	≥ 1000	≥ 1000	≥ 1000	300 to 600	≥ 1000
C=CC(=O)N1CC[C@H](Oc2cc3c(Nc4ccc(Oc5ccn(-c6cnc(OC)nc6)n5)cc4F)ncnc3cc2OC)C1 [Compound 81, (S)-1-(3-((4-((2-fluoro-4-((1-(2-methoxypyrimidin-5-yl)-1H-pyrazol-3-yl)oxy)phenyl)amino)-7-methoxyquinazolin-6-yl)oxy)pyrrolidin-1-yl) prop-2-en-1-one]	300 to 600	100 to 300	–	–	300 to 600
